Test system: Colo357FG
Experiment: Luciferase-expressing pancreatic cancer orthotopic nude mouse model
Assay type: in vivo
Procedure: The therapeutic efficacy of IIIg on tumor growth and survival is evaluated in different luciferase-expressing pancreatic cancer orthotopic nude mouse models using an IVIS100 Imaging System, allowing a quantitative real time monitoring of tumor growth.
Mice are monitored daily for signs of toxicity including weight loss, diarrhea, inactivity, and general appearance.
Three days after the orthotopic implantation of 1.0×10^6 COL0357FG tumor cells in 50 μL of HBSS, when bioluminescence imaging confirmed that tumors are well established, in one experiment, mice are randomly allocated into three groups (n=10 mice per group) to receive one of the following treatments. (a) Vehicle solution for 50 μL of sterile saline; (b) IIIg (25 mg/kg) biweekly i.p.; (c) IIIg (100 mg/kg) biweekly i.p. Treatments are continued for 4 weeks. All mice are weighed weekly and observed for tumor growth. Tumor diameter is assessed with a Vernier caliper, and tumor volume (mm^3) is calculated as d^2×D/2, wherein d and D represent the shortest and longest diameters, respectively. Bulky disease is considered present when tumor burden is prominent in the mouse abdomen (tumor volume, >=2,000 mm^3).
In another experiment, mice are randomly allocated into four groups (n=10 mice per group) to receive one of the following treatments. (a) Vehicle solution for 50 μL of sterile saline; (b) IIIg (200 mg/kg) once weekly i.p.; (c) IIIg (100 mg/kg) biweekly i.p; (d) IIIg (40 mg/kg) once daily i.p. Treatments are continued for 4 weeks. All mice are weighed weekly and observed for tumor growth. Tumor diameter is assessed with a Vernier caliper, and tumor volume (mm^3) is calculated as d^2×D/2, wherein d and D represent the shortest and longest diameters, respectively. Bulky disease is considered present when tumor burden is prominent in the mouse abdomen (tumor volume, >=2,000 mm^3).
In another experiment, mice are randomly allocated into eight groups to receive one of the following treatments via oral or ip administration. (a) Vehicle solution for 50 μL of sterile saline (oral); (b) Gemcitabine (25 mg/kg) biweekly for 4 weeks (ip); (c) IIIg (200 mg/kg) once weekly (oral); (d) IIIg (200 mg/kg) biweekly (oral); (e) IIIg (200 mg/kg) once daily (oral); (f) IIIg (400 mg/kg) once weekly (oral); (g) IIIg (400 mg/kg) biweekly (oral); (h) IIIg (400 mg/kg) once daily (oral). In all treatments, IIIg is given orally. Treatments are continued for 4 weeks. All mice are weighed weekly and observed for tumor growth. Tumor diameter is assessed with a Vernier caliper, and tumor volume (mm^3) is calculated as d^2×D/2, wherein d and D represent the shortest and longest diameters, respectively. Bulky disease is considered present when tumor burden is prominent in the mouse abdomen (tumor volume, >=2,000 mm^3).
When at least 6 of 10 mice in a treatment group presented with bulky disease, the median survival duration for that group is considered to be reached. At the median survival duration of the control group, the tumor growth in mice in all groups is evaluated using the bioluminescence emitted by the tumor cells. Bioluminescence imaging is conducted using a cryogenically cooled IVIS 100 imaging system coupled to a data acquisition computer running Living Image software (Xenogen). The mice are sacrificed by carbon dioxide inhalation when evidence of advanced bulky disease is present. The day of sacrifice is considered the day of death for survival evaluation.
Three days after the orthotopic implantation of 1.0×10^6 COL0357FG tumor cells in 50 μL of HBSS, when bioluminescence imaging confirmed that tumors are well established, mice are randomly allocated into four groups to receive one of the following treatments: (a) Vehicle solution for 50 μL of sterile saline; (b) IIIg (400 mg/kg) once daily for 4 weeks [(QD5+R2)×4]; (c) oxaliplatin (10 mg/kg) biweekly for 4 weeks (ip); (d) combination of IIIg (400 mg/kg) once daily for 4 weeks [(QD5+R2)×4] with oxaliplatin (10 mg/kg biweekly, ip). […]

[1] = intraperitoneal injection, 200 mg/kg QW×4
[2] = oral, 400 mg/kg [QD5+R2]×4, compared to no treatment and standard gemcitabine treatment

With `O=c1ccc2c(I)c([N+](=O)[O-])ccc2o1` [IIIg, 5-iodo-6-nitro-benzopyrone] the Signs of toxicity (100 mg/kg/day 2/week×4 weeks) was “without signs of toxicity”, the Survival (100 mg/kg/day 2/week×4 weeks) was “prolongs survival” and the Tumor burden (100 mg/kg/day 2/week×4 weeks) was “significantly reduces the tumor burden”. For the same compound, the “In vivo antitumor effect, comparison of schedules” value (200 mg/kg/week once a week in comparison with 2 times/week or daily schedule, preliminary results) was “greater in vivo antitumor effect”, the “Anti-tumor activity of the combination” value (IIIg 400 mg/kg once daily [(QD5+R2)×4] with oxaliplatin 10 mg/kg biweekly, ip) was “potent synergistic anti-tumor activity” and the Survival [1] was “prolongs the survival”. The Tumor burden [1] was “potently reduces the tumor burden”, the Survival [2] was “prolongs survival” and the Tumor burden [2] was “significantly reduces the tumor burden”.
